Experimental data: patent US10729718B2, “Substances containing AuCs and preparation method and use thereof” (Shenzhen Profound-View Pharma Tech Co., Ltd, priority 2016, dated 2020)

Columns and labels:
Aβ(1-40) [1] = target: T1, Aβ(1-40) (Homo sapiens, UniProt P05067); assay: In vitro Aβ aggregation kinetic experiment (ThT fluorescent labeling method); assay type: biochemical; settings: ThT fluorescence, 20 μM Aβ(1-40), 37° C., up to 20.0 ppm (L-NIBC 1.0 and 10.0 ppm)
T1 construct: Freeze-dried powder of amyloid polypeptide Aβ(1-40) (Invitrogen Corp.); purchased Invitrogen Corp
T1 sequence (P05067 672-711 limits assumed): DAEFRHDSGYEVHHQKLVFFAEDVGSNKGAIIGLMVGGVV
From the text: Thioflavin T (abbreviation: ThT) is a dye specifically for dyeing amyloid fibers. […] When it encounters amyloid polypeptides or proteins with a fiber structure, it will immediately couple with the amyloid polypeptides or proteins and its fluorescence intensity will increase exponentially. Just because of this property, ThT is widely used as a marker to monitor amyloidosis of peptides or proteins. The fibrosis process of Aβ(1-40) is also a nucleation-controlled polymerization process. Therefore, the growth curve of Aβ(1-40) fiber measured by ThT fluorescent labeling method is mainly divided into three stages: Initial stage, growth stage and platform stage. […] All the Aβ(1-40) PBS solutions for the experiments were prepared freshly. […] The samples were incubated continuously in a 96-well plate at 37° C. by ThT fluorescent labeling method, and monitored the fluorescence intensity by microplate reader once every 10 minutes.

[2] = test system: SH-SY5Y neuroblastoma cell line; assay: Aβ induced AD cell model, cell viability by CCK-8 method; assay type: cell-based; settings: 0.01-20 ppm (L-NIBC 20 ppm); 20 μM Aβ(1-40), 24 h
Experimental: The cell viability was used as an index in the experiment of this embodiment. […] The cells used in the experiment were SH-SY5Y neuroblastoma cell line. […] Specific method:
1) SH-sy5y cells (cells had passed to the sixth generation) in logarithmic growth phase were diluted with complete medium (MEM+10% FBS+1% penicillin-streptomycin) to get a cell suspension in a density of 5×10^4/mL. The suspension was inoculated 200 μL per well into a 96-well plate, and cultivated in an incubator with 5% CO2 at 37° C. A sample was added when the cells attached to the wells.
2) 100 μL ligand-modified AuCs samples or ligand-modified gold nanoparticles samples, at different particle sizes and at concentrations of 0.04 ppm, 0.4 ppm, 4 ppm, 20 ppm, 40 ppm and 80 ppm respectively, which were dissolved by maintenance medium (MEM+2% FBS+1% penicillin-streptomycin) were added into the incubated suspension obtained from Step 1). After incubating in the incubator for 2 h, 100 μL 80 μM Aβ(1-40) was added, and then the mixture was incubated in the incubator for 24 h. […] The culture medium was removed, maintenance medium (MEM) containing 10% CCK-8 at 100 μL/well was added and was incubated for 4 h, the absorbance of each well at 450 nm was measured to reflect the prevention and treatment effects of ligand-modified AuCs on Aβ(1-40) lesion.

α-syn = target: T2, α-syn (Homo sapiens, UniProt P37840); assay: In vitro α-syn aggregation kinetics (ThT fluorescent labeling method); assay type: biochemical; settings: ligand only (L-NIBC 1.0 and 10.0 ppm), 35 μM α-syn, 37° C.
T2 construct: purchased Bachem Corp
From the text: Thioflavin T (abbreviation: ThT) is a dye for dyeing amyloid fibers specifically. […] When it encounters amyloid polypeptide or protein with a fiber structure, it will immediately couple with the amyloid polypeptides or proteins and its fluorescence intensity will increase exponentially. For this reason, ThT is widely used as markers to monitor amyloidosis of peptides or proteins. This embodiment utilizes ThT fluorescent labeling method to monitor the kinetics process of fibrosis aggregation of α-syn with the existence of AuCs. The specific experiment method was as follows:
Pretreatment of α-syn monomers: Freeze-dried powder (Bachem Corp.) of α-syn was dissolved in HFIP to obtain a 1 g/L α-syn solution. The solution was incubated at room temperature for 2-4 h after sealing, then blowed to dry HFIP by high-purity nitrogen in a fume hood. […]
Sample preparation and detection: Ligand-modified AuCs in different concentrations listed in Table 1 were added to 35 μM α-syn PBS solutions respectively, and incubated continuously in a 96-well plate at 37° C., by ThT fluorescent labeling method, and were monitored the fluorescence intensity by microplate reader once every 10 minutes. The kinetic process of α-syn aggregation was characterized through the change of fluorescence intensity of ThT. […]

Aβ(1-40) [3] = target: T1, Aβ(1-40); assay: AFM topography of Aβ(1-40) after coincubation for 48 h; assay type: biochemical; settings: coincubated with Aβ(1-40) for 48 h
Experimental: Panel A is the AFM topography after Aβ(1-40) was incubated alone for 48 h. Panel B is an AFM topography after Aβ(1-40) was coincubated with L-NIBC for 48 h. Panel C and panel D are AFM topographies after Aβ(1-40) was coincubated with gold nanoparticles with an average particle size of 6.0 nm and 3.6 nm respectively (modified with L-NIBC) for 48 h. And panel E is an AFM topography after Aβ(1-40) was coincubated with AuCs in an average particle size of 1.8 nm (modified with L-NIBC) for 48 h.

SH-sy5y cells = assay: MPP+ induced PD cell (SH-sy5y) model, Experiment 2, CCK-8; assay type: cell-based; settings: 1 mM MPP^+ and ligand 20 ppm, 24 h; model control 65.1±4.0%

With `CC(C)C(=O)N[C@@H](CS)C(=O)O` [L-NIBC, N-isobutyryl-L-cysteine] the “effect on Aβ(1-40) amyloidosis / aggregation kinetics” value (Aβ(1-40) [1]) was “no obvious effect”, the “effect on cell viability of Aβ induced AD cell model” value [2] was “did not improve cell viability” and the “effect on kinetics of α-syn aggregation” value (α-syn) was “did not have an obvious effect”. For the same molecule, the “formation of Aβ(1-40) fibers (AFM topography)” value (Aβ(1-40) [3]) was “no obvious effect” and the “cell viability of the ligand control group” value (SH-sy5y cells) was 61.5±3.8%.
